Data: ChEMBL document CHEMBL4184182, “Studies on interactions of carbazole derivatives with DNA, cell image, and cytotoxicity” (Bioorg Med Chem, 2018)
Calls of active or inactive are those of the source. The calls are words filed in the database; no cut-off is given here.

Experiments:
Calf thymus DNA [1] = experiment: Binding affinity to calf thymus DNA assessed as hyperchromicity at 15 uM after 5 mins by UV-Visible absorbance titration method; format: nucleic-acid assay; conditions: Bos taurus
Quadruplex DNA [2] = experiment: Binding affinity to c-Kit G-quadruplex DNA (unknown origin) assessed as red shift at 15 uM after 5 mins by UV-Visible absorbance titration method; format: nucleic-acid assay
Quadruplex DNA [3] = experiment: Binding affinity to c-Myc G-quadruplex DNA (unknown origin) assessed as red shift at 15 uM after 5 mins by UV-Visible absorbance titration method; format: nucleic-acid assay
Calf thymus DNA [4] = experiment: Binding affinity to calf thymus DNA after 5 mins by UV-Visible absorbance titration method; format: nucleic-acid assay; conditions: Bos taurus
dsDNA [5] = experiment: Binding affinity to 26-mer duplex DNA (unknown origin) after 5 mins by UV-Visible absorbance titration method; format: nucleic-acid assay
Quadruplex DNA [6] = experiment: Binding affinity to c-Kit G-quadruplex DNA (unknown origin) after 5 mins by UV-Visible absorbance titration method; format: nucleic-acid assay
Quadruplex DNA [7] = experiment: Binding affinity to Bcl2 G-quadruplex DNA (unknown origin) after 5 mins by UV-Visible absorbance titration method; format: nucleic-acid assay
Quadruplex DNA [8] = experiment: Binding affinity to c-Myc G-quadruplex DNA (unknown origin) after 5 mins by UV-Visible absorbance titration method; format: nucleic-acid assay
Quadruplex DNA [9] = experiment: Binding affinity to human telomeric G-quadruplex DNA after 5 mins in presence of potassium ion by UV-Visible absorbance titration method; format: nucleic-acid assay
Quadruplex DNA [10] = experiment: Binding affinity to human telomeric G-quadruplex DNA after 5 mins in presence of sodium ion by UV-Visible absorbance titration method; format: nucleic-acid assay
Quadruplex DNA [11] = experiment: Binding affinity to Bcl2 G-quadruplex DNA (unknown origin) assessed as emission maximum at 5 uM after 5 mins by fluorescence titration method (reference value: 559 nanometer); format: nucleic-acid assay
[12] = Selectivity ratio of Kb for c-Kit G-quadruplex DNA (unknown origin) to Kb for calf thymus DNA
[13] = Selectivity ratio of Kb for Bcl2 G-quadruplex DNA (unknown origin) to Kb for calf thymus DNA
[14] = Selectivity ratio of Kb for c-Myc G-quadruplex DNA (unknown origin) to Kb for calf thymus DNA
[15] = Selectivity ratio of Kb for human telomeric G-quadruplex DNA in presence of potassium ion to Kb for calf thymus DNA
[16] = Selectivity ratio of Kb for human telomeric G-quadruplex DNA in presence of sodium ion to Kb for calf thymus DNA
Quadruplex DNA [17] = experiment: Binding affinity to Bcl2 G-quadruplex DNA (unknown origin) assessed as stoichiometric ratio of compound to G-quadruplex DNA after 5 mins by Job plot analysis; format: nucleic-acid assay
Quadruplex DNA [18] = experiment: Binding affinity to c-Kit G-quadruplex DNA (unknown origin) assessed as stoichiometric ratio of compound to G-quadruplex DNA after 5 mins by Job plot analysis; format: nucleic-acid assay
Quadruplex DNA [19] = experiment: Binding affinity to c-Myc G-quadruplex DNA (unknown origin) assessed as stoichiometric ratio of compound to G-quadruplex DNA after 5 mins by Job plot analysis; format: nucleic-acid assay
Quadruplex DNA [20] = experiment: Binding affinity to human telomeric G-quadruplex DNA assessed as stoichiometric ratio of compound to G-quadruplex DNA after 5 mins in presence of potassium ion by Job plot analysis; format: nucleic-acid assay
Quadruplex DNA [21] = experiment: Binding affinity to human telomeric G-quadruplex DNA assessed as stoichiometric ratio of compound to G-quadruplex DNA after 5 mins in presence of sodium ion by Job plot analysis; format: nucleic-acid assay
Quadruplex DNA [22] = experiment: Displacement of thiazole orange from Bcl2 G-quadruplex DNA (unknown origin) after 5 mins by fluorescence spectral analysis; format: nucleic-acid assay
Quadruplex DNA [23] = experiment: Displacement of thiazole orange from c-Kit G-quadruplex DNA (unknown origin) after 5 mins by fluorescence spectral analysis; format: nucleic-acid assay
Quadruplex DNA [24] = experiment: Displacement of thiazole orange from c-Myc G-quadruplex DNA (unknown origin) after 5 mins by fluorescence spectral analysis; format: nucleic-acid assay
Quadruplex DNA [25] = experiment: Displacement of thiazole orange from human telomeric G-quadruplex DNA after 5 mins in presence of potassium ion by fluorescence spectral analysis; format: nucleic-acid assay
Quadruplex DNA [26] = experiment: Displacement of thiazole orange from human telomeric G-quadruplex DNA after 5 mins in presence of sodium ion by fluorescence spectral analysis; format: nucleic-acid assay
dsDNA [27] = experiment: Displacement of thiazole orange from 26-mer duplex DNA (unknown origin) after 5 mins by fluorescence spectral analysis; format: nucleic-acid assay
[28] = Selectivity ratio of DC50 for 26-mer duplex DNA (unknown origin) to DC50 for Bcl2 G-quadruplex DNA (unknown origin)
[29] = Selectivity ratio of DC50 for 26-mer duplex DNA (unknown origin) to DC50 for c-Kit G-quadruplex DNA (unknown origin)
[30] = Selectivity ratio of DC50 for 26-mer duplex DNA (unknown origin) to DC50 for c-Myc G-quadruplex DNA (unknown origin)
[31] = Selectivity ratio of DC50 for 26-mer duplex DNA (unknown origin) to DC50 for human telomeric G-quadruplex DNA in presence of potassium ion
Quadruplex DNA [32] = experiment: Induction of conformational changes in Bcl2 G-quadruplex DNA (unknown origin) at 15 uM after 5 mins by CD spectral analysis; format: nucleic-acid assay
Quadruplex DNA [33] = experiment: Induction of conformational changes in c-Kit G-quadruplex DNA (unknown origin) at 15 uM after 5 mins by CD spectral analysis; format: nucleic-acid assay
Quadruplex DNA [34] = experiment: Induction of conformational changes in c-Myc G-quadruplex DNA (unknown origin) at 15 uM after 5 mins by CD spectral analysis; format: nucleic-acid assay
Quadruplex DNA [35] = experiment: Induction of conformational changes in human telomeric G-quadruplex DNA at 15 uM after 5 mins in presence of potassium ion by CD spectral analysis; format: nucleic-acid assay
Quadruplex DNA [36] = experiment: Induction of conformational changes in human telomeric G-quadruplex DNA at 15 uM after 5 mins in presence of sodium ion by CD spectral analysis; format: nucleic-acid assay
Quadruplex DNA [37] = experiment: Binding affinity to c-Myc G-quadruplex DNA (unknown origin) assessed as enhanced fluorescence time at 5 uM after 5 mins by fluorescence titration assay relative to control; format: nucleic-acid assay
Quadruplex DNA [38] = experiment: Binding affinity to human telomeric G-quadruplex DNA assessed as enhanced fluorescence time at 5 uM after 5 mins in presence of sodium ion by fluorescence titration assay relative to control; format: nucleic-acid assay
HepG2 [39] = experiment: Antiproliferative activity against human HepG2 cells after 72 hrs by MTT assay; format: functional, cell-based; conditions: for IC50: HepG2, 72 h
HepG2 [40] = experiment: Induction of morphological changes in human HepG2 cells assessed as debris formation at 10 uM after 24 hrs; format: functional, cell-based
Quadruplex DNA [41] = experiment: Binding affinity to Bcl2 G-quadruplex DNA (unknown origin) assessed as hyperchromicity at 10 uM after 5 mins by UV-Visible absorbance titration method; format: nucleic-acid assay
Quadruplex DNA [42] = experiment: Binding affinity to human telomeric G-quadruplex DNA assessed as hyperchromicity at 10 uM after 5 mins in presence of potassium ion by UV-Visible absorbance titration method; format: nucleic-acid assay
Quadruplex DNA [43] = experiment: Binding affinity to Bcl2 G-quadruplex DNA (unknown origin) assessed as red shift at 10 uM after 5 mins by UV-Visible absorbance titration method; format: nucleic-acid assay
dsDNA [44] = experiment: Binding affinity to 26-mer duplex DNA (unknown origin) assessed as emission maximum at 5 uM after 5 mins by fluorescence titration method (reference value: 584 nanometer); format: nucleic-acid assay
HepG2 [45] = experiment: Induction of morphological changes in human HepG2 cells assessed as cellular clumping at 5 uM after 24 hrs; format: functional, cell-based

Compound `CCn1c2ccccc2c2cc(/C=C(\C#N)c3ccc[n+](C)c3)ccc21.[I-]` has an Activity (Calf thymus DNA [1]) of 39.4%, an Activity (Quadruplex DNA [2]) of 27 nm and an Activity (Quadruplex DNA [3]) of 25 nm. The Kb (Calf thymus DNA [4]) was 1 ×10⁴ /M, the Kb (dsDNA [5]) was 2.28 ×10⁴ /M and the Kb (Quadruplex DNA [6]) was 10.7 ×10⁴ /M. For the same compound, the Kb (Quadruplex DNA [7]) was 9.99 ×10⁴ /M, the Kb (Quadruplex DNA [8]) was 19.2 ×10⁴ /M and the Kb (Quadruplex DNA [9]) was 11.9 ×10⁴ /M. The Kb (Quadruplex DNA [10]) was 6.95 ×10⁴ /M, the Activity (Quadruplex DNA [11]) was 541 nm and the Selectivity ratio [12] was 6.7. For the same compound, the Selectivity ratio [13] was 6.2, the Selectivity ratio [14] was 12 and the Selectivity ratio [15] was 7.4. For the same compound, the Selectivity ratio [16] was 4.3, the Ratio (Quadruplex DNA [17]) was 1.6 and the Ratio (Quadruplex DNA [18]) was 2. The Ratio (Quadruplex DNA [19]) was 2.1, the Ratio (Quadruplex DNA [20]) was 2.2 and the Ratio (Quadruplex DNA [21]) was 1.9. It also gave a DC50 (Quadruplex DNA [22]) of 9.25 µM, a DC50 (Quadruplex DNA [23]) of 6.03 µM and a DC50 (Quadruplex DNA [24]) of 5.15 µM. The DC50 (Quadruplex DNA [25]) was 6.64 µM, the DC50 (Quadruplex DNA [26]) was 9.85 µM and the DC50 (dsDNA [27]) was 13.1 µM. The Selectivity ratio [28] was 1.42, the Selectivity ratio [29] was 2.17 and the Selectivity ratio [30] was 2.55. For the same compound, the Selectivity ratio [31] was 1.98, the Activity (Quadruplex DNA [32]) was “inactive” and the Activity (Quadruplex DNA [33]) was “inactive”. The Activity (Quadruplex DNA [34]) was “inactive”, the Activity (Quadruplex DNA [35]) was “inactive” and the Activity (Quadruplex DNA [36]) was “inactive”. The fold change (FC) (Quadruplex DNA [37]) was 11.2 to 20.6, the fold change (FC) (Quadruplex DNA [38]) was 11.2 to 20.6 and the Activity (HepG2 [39]) was “Dose-dependent effect”. For the same compound, the IC50 (HepG2 [39]) was 9.8 µM and the Activity (HepG2 [40]) was “Active”.
`CCn1c2ccccc2c2cc(/C=C/c3sc4ccccc4[n+]3CC)ccc21.[I-]` showed an Activity (Quadruplex DNA [41]) of 52.6%, an Activity (Quadruplex DNA [42]) of 41.1% and an Activity (Quadruplex DNA [43]) of 47 nm. For the same compound, the Kb (Calf thymus DNA [4]) was 1.32 ×10⁴ /M, the Kb (dsDNA [5]) was 3.97 ×10⁴ /M and the Kb (Quadruplex DNA [6]) was 23.9 ×10⁴ /M. The Kb (Quadruplex DNA [7]) was 32 ×10⁴ /M, the Kb (Quadruplex DNA [8]) was 54.9 ×10⁴ /M and the Kb (Quadruplex DNA [9]) was 18.3 ×10⁴ /M. The Kb (Quadruplex DNA [10]) was 7.86 ×10⁴ /M, the Activity (dsDNA [44]) was 568 nm and the Selectivity ratio [12] was 18.1. It also gave a Selectivity ratio [13] of 24.2, a Selectivity ratio [14] of 41.6 and a Selectivity ratio [15] of 13.9. The Selectivity ratio [16] was 6, the Ratio (Quadruplex DNA [17]) was 1.5 and the Ratio (Quadruplex DNA [18]) was 1.9. For the same compound, the Ratio (Quadruplex DNA [19]) was 1.9, the Ratio (Quadruplex DNA [20]) was 2.2 and the Ratio (Quadruplex DNA [21]) was 1.9. For the same compound, the DC50 (Quadruplex DNA [22]) was 0.84 µM, the DC50 (Quadruplex DNA [23]) was 2.15 µM and the DC50 (Quadruplex DNA [24]) was 0.93 µM. It also gave a DC50 (Quadruplex DNA [25]) of 1.81 µM, a DC50 (Quadruplex DNA [26]) of 6.08 µM and a DC50 (dsDNA [27]) of 4.34 µM. The Selectivity ratio [28] was 5.17, the Selectivity ratio [29] was 2.02 and the Selectivity ratio [30] was 4.67. The Selectivity ratio [31] was 2.4, the Activity (Quadruplex DNA [32]) was “inactive” and the Activity (Quadruplex DNA [33]) was “inactive”. The Activity (Quadruplex DNA [34]) was “inactive”, the Activity (Quadruplex DNA [35]) was “inactive” and the Activity (Quadruplex DNA [36]) was “inactive”. The Activity (HepG2 [39]) was “Dose-dependent effect”, the IC50 (HepG2 [39]) was 2.7 µM and the Activity (HepG2 [45]) was “Active”.
